According to US20260376299A1, “METHODS OF TREATING ACUTE MYELOID LEUKEMIA” (The Regents of the University of Colorado, A Body Corporate, priority 2022, published 2026):

Columns and labels:
m-LSCs = test: Colony-forming unit (CFU) assay on m-LSCs; format: cell-based, human; details: for potency against m-LSCs, CdA versus BRQ and MTX / selectivity for m-LSCs over p-LSCs and normal HSPCs: CFU assay; for potency against m-LSCs, CdA versus BRQ and MTX: FIG. 6D; for selectivity for m-LSCs over p-LSCs and normal HSPCs: FIG. 6C
Experimental: FIG. 6C and FIG. 6D show the impact of chemotherapy agents AraC, DNR, DHODH inhibitor brequinar (BRQ), and TYMS inhibitor methotrexate (MTX) on the CFU potential of m-LSCs, p-LSCs and CD34+ HSPCs. […] IP, intraperitoneal; OG, oral gavage. […] Engraft % was determined by % of hCD45+/mCD45− cells within total viable bone marrow mononuclear cells. Each dot represents a unique mouse. For PDX of AML-13, control (n=11), VEN+AZA(n=9), CdA(n=10), VEN+AZA+CdA(n=10). For PDX of AML-07, control(n=11), VEN+AZA(n=9), CdA(n=12), VEN+AZA+CdA(n=9). Box plots represent median+interquartile range. Kruskal-Wallis test was used. ns, not significant. […] Engraft % was determined by % of hCD45+/mCD45− cells within total viable spleen mononuclear cells. hCD45+ count was determined by direct quantification of hCD45+/mCD45− cells within a set volume of spleen harvest using flow cytometry. Each dot represents a unique mouse. Control (n=6), VEN+AZA(n=6), CdA(n=6), VEN+AZA+CdA(n=6). Box plots represent median+/−interquartile. Kruskal-Wallis test was used. ns, not significant.
(§1) Methotrexate (MTX), brequinar (BRQ), and cladribine (CdA) were selected based on their activities in inhibiting one-carbon metabolism enzymes DHFR and TYMS, pyrimidine synthesis enzyme DHODH, and purine-based DNA/RNA synthesis, respectively. Colony-forming unit assays were performed on m-LSCs and p-LSCs isolated from Mono, Multi-MMP, and Prim specimens, along with normal CD34+ hematopoietic stem and progenitor cells (HSPC) from two healthy donors.
Freshly sorted m-LSCs from primary AMLs or prepared CD34+ HSPCs isolated from normal mobilized peripheral samples were plated in human methylcellulose (R&D systems) at about 100 K/ml and 2 K/ml, respectively. Small molecule inhibitors were directly added into the methylcellulose at the desired final concentration at the plating. Colonies were counted 2-3 weeks after the initial plating.

normal CD34+ HSPCs = test: Colony-forming unit (CFU) assay on normal CD34+ HSPCs; format: cell-based, human; details: normal CD34+ HSPCs from two healthy donors
Experimental: (§2) FIG. 6C and FIG. 6D show the impact of chemotherapy agents AraC, DNR, DHODH inhibitor brequinar (BRQ), and TYMS inhibitor methotrexate (MTX) on the CFU potential of m-LSCs, p-LSCs and CD34+ HSPCs. […] IP, intraperitoneal; OG, oral gavage. […] Engraft % was determined by % of hCD45+/mCD45− cells within total viable bone marrow mononuclear cells. Each dot represents a unique mouse. For PDX of AML-13, control (n=11), VEN+AZA(n=9), CdA(n=10), VEN+AZA+CdA(n=10). For PDX of AML-07, control(n=11), VEN+AZA(n=9), CdA(n=12), VEN+AZA+CdA(n=9). Box plots represent median+interquartile range. Kruskal-Wallis test was used. ns, not significant. […] Engraft % was determined by % of hCD45+/mCD45− cells within total viable spleen mononuclear cells. hCD45+ count was determined by direct quantification of hCD45+/mCD45− cells within a set volume of spleen harvest using flow cytometry. Each dot represents a unique mouse. Control (n=6), VEN+AZA(n=6), CdA(n=6), VEN+AZA+CdA(n=6). Box plots represent median+/−interquartile. Kruskal-Wallis test was used. ns, not significant. […]
(§3) Freshly sorted m-LSCs from primary AMLs or prepared CD34+ HSPCs isolated from normal mobilized peripheral samples were plated in human methylcellulose (R&D systems) at about 100 K/ml and 2 K/ml, respectively. […] Colonies were counted 2-3 weeks after the initial plating.

p-LSCs = test: Colony-forming unit (CFU) assay on p-LSCs; format: cell-based, human
Experimental: as §2, §3

[1] = system: monocytic subpopulation of engrafted AML cells; test: Flow analysis of residual engrafted human cells after in vivo treatment; design: species or system human AML in NSG-S mice
Experimental: as §1
NSG-S (NOD.Cg-Prkdcscid Il2rgtm1Wjl Tg(CMV-IL3,CSF2,KITLG)1Eav/MloySzJ) mice (The Jackson Laboratory) were used for xenograft studies in this study. Male or female mice ranging in age from 6 to 8 weeks were started on experiment. Littermates of the same sex were randomly assigned to experimental groups. NSG-S mice were pre-conditioned 24 hours prior to transplant with 30 mg/kg busulfan (Alfa Acsar) via intraperitoneal (IP) injection. The busulfan stock was made fresh at 25 mg/ml in 100% DMSO, then the stock was diluted 1:10 in pre-warmed saline (0.9% NaCl) down to 2.5 mg/ml right before use. The diluted busulfan solution was kept in 37 °C water bath before IP injection to prevent precipitation of busulfan due to low solubility. […]
About 2-4 weeks post initial transplant, tumor burden in the bone marrow was determined to be above 5% in sentinel mice. […]

AML patients = details: cited from earlier work

SMILES: Cc1c(-c2ccc(-c3ccccc3F)cc2)nc2ccc(F)cc2c1C(=O)O [BRQ, 6-fluoro-2-(2′-fluoro-1,1′-biphenyl-4-yl)-3-methyl-4-quinolinecarboxylic acid]
- potency against m-LSCs, CdA versus BRQ and MTX (m-LSCs): CdA also outperformed BRQ and MTX in potency against m-LSCs

SMILES: Nc1ccn([C@@H]2O[C@H](CO)[C@@H](O)[C@@H]2O)c(=O)n1 [cytarabine, 4-amino-1-[(2R,3S,4S,5R)-3,4-dihydroxy-5-(hydroxymethyl)oxolan-2-yl]pyrimidin-2-one]
- selectivity for m-LSCs over p-LSCs and normal HSPCs (m-LSCs): selectivity was not seen

SMILES: CN(Cc1cnc2nc(N)nc(N)c2n1)c1ccc(C(=O)N[C@@H](CCC(=O)O)C(=O)O)cc1 [MTX, (28)-2-[(4-{[(2,4-Diaminopteridin-6-yl)methyl](methyl)amino}benzoyl)amino]pentanedioic acid]
- potency against m-LSCs, CdA versus BRQ and MTX (m-LSCs): CdA also outperformed BRQ and MTX in potency against m-LSCs

SMILES: Nc1nc(Cl)nc2c1ncn2[C@H]1C[C@@H](O)[C@@H](CO)O1 (stereo in doubt) [CdA, 5-(6-Amino-2-chloro-purin-9-yl)-2-(hydroxymethyl)oxolan-3-ol]
- potency against m-LSCs, CdA versus BRQ and MTX (m-LSCs): outperformed BRQ and MTX in potency against m-LSCs
- effect on CFU potential / specificity against m-LSCs (m-LSCs; m-LSCs isolated from AML specimens): remarkable specificity against m-LSCs
- effect on CFU potential (sparing) (normal CD34+ HSPCs): sparing p-LSCs as well as normal HSPC controls
- effect on CFU potential (sparing) (p-LSCs): sparing p-LSCs
- clearance of the monocytic subpopulation [1]: targeted the monocytic counterpart

SMILES: COc1cccc2c1C(=O)c1c(O)c3c(c(O)c1C2=O)C[C@@](O)(C(C)=O)C[C@@H]3O[C@H]1C[C@H](N)[C@H](O)[C@H](C)O1 [daunorubicin]
- selectivity for m-LSCs over p-LSCs and normal HSPCs (m-LSCs): selectivity was not seen

SMILES: CC1(C)CCC(CN2CCN(c3ccc(C(=O)NS(=O)(=O)c4ccc(NCC5CCOCC5)c([N+](=O)[O-])c4)c(Oc4cnc5[nH]ccc5c4)c3)CC2)=C(c2ccc(Cl)cc2)C1 [venetoclax, 4-(4-{[2-(4-Chlorophenyl)-4,4-dimethyl-1-cyclohexen-1-yl]methyl}-1-piperazinyl)-N-({3-nitro-4-[(tetrahydro-2H-pyran-4-ylmethyl)amino]phenyl}sulfonyl)-2-(1H-pyrrolo[2,3-b]pyridin-5-yloxy)benzamide]
- responses to venetoclax in combination with backbone chemotherapy (AML patients; older previously untreated AML patients): 60-70%
- CR/CRi and MRD negativity rates (AML patients; venetoclax combined with chemotherapy regimens FLAG-Ida, CLIA or Clad-LDAC/AZA, recent clinical trials): superior CR/CRi and MRD negativity rates
